Data taken from ChEMBL document CHEMBL1125575, “2-[(2-pyridylmethyl)sulfinyl]-1H-thieno[3,4-d]imidazoles. A novel class of gastric H+/K(+)-ATPase inhibitors” (J Med Chem, 1992).

Experiments:
animal or person = conditions: Canis lupus familiaris, Stomach, iv, read-out: Inhibition
Canis familiaris [1] = assay: Antisecretory activity calculated in heidenhain-pouch dog after id administration of the drug, value in parenthesis indicates 95% confidence limits; assay type: functional; conditions: Canis lupus familiaris
[2] = Chemical stability at pH 5.0; assay type: physicochemical; conditions: buffer
Canis familiaris [3] = species: Canis familiaris; assay: animal or person; conditions: Canis lupus familiaris, Stomach, intraduodenal, read-out: Inhibition
[4] = Chemical stability at pH 2.0; assay type: physicochemical; conditions: buffer
Canis familiaris [5] = species: Canis familiaris; assay: animal or person; conditions: Canis lupus familiaris, iv
[6] = Chemical stability at pH 7.0; assay type: physicochemical; conditions: buffer
Oryctolagus cuniculus [7] = species: Oryctolagus cuniculus; assay: cells; assay type: functional, organism-based, Stomach
Description: In vitro inhibition of 14C amino-pyrine uptake was determined in isolated rabbit gastric glands after dbcAMP stimulation

Rattus norvegicus [8] = species: Rattus norvegicus; assay: animal or person; conditions: Stomach, iv, read-out: Inhibition
[9] = molecular target: Potassium-transporting ATPase alpha chain 1 (Sus scrofa) (UniProt P19156); assay: Inhibition of H+/K+ ATPase from pig stomach; assay type: tissue-based; conditions: concentration not given here
Potassium-transporting ATPase alpha chain 1 (Sus scrofa), sequence (P19156 whole entry): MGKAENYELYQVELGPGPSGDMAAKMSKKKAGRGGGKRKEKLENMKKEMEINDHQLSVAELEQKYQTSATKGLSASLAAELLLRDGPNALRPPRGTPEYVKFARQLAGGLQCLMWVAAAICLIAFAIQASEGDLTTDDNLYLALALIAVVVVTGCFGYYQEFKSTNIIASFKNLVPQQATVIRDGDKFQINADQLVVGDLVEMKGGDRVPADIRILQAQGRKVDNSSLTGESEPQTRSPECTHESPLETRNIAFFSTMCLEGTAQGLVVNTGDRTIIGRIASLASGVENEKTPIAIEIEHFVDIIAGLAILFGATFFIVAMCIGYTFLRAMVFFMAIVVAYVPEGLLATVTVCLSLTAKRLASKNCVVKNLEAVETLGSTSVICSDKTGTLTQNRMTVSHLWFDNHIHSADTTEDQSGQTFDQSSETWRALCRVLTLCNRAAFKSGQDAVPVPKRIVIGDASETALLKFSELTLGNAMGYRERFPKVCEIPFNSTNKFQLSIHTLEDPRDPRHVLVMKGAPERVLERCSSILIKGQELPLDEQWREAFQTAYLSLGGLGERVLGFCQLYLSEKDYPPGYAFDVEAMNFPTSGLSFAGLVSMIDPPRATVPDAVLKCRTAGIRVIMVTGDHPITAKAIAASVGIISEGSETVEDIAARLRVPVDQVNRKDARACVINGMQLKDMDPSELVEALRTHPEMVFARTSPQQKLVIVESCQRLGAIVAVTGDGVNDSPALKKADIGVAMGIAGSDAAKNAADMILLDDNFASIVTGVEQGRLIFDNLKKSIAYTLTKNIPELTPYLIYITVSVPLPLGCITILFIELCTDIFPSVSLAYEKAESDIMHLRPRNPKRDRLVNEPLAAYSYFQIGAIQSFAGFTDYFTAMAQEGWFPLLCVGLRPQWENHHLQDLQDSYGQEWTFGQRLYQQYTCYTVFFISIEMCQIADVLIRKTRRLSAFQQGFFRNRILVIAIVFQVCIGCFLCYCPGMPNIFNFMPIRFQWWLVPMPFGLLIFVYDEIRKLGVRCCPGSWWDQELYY

Oryctolagus cuniculus [10] = species: Oryctolagus cuniculus; assay: In vitro inhibition of 14C amino pyrine uptake was determined in isolated rabbit gastric glands after dbcAMP stimulation; assay type: functional; conditions: Stomach
[11] = molecular target: Potassium-transporting ATPase alpha chain 1 (Sus scrofa, UniProt P19156)
Potassium-transporting ATPase alpha chain 1, sequence (P19156 whole entry): as above
Description: In vitro inhibitory concentration against H+/K+ ATPase from pig stomach by probit analysis

Canis familiaris [12] = assay: In vivo inhibition of gastric acid secretion was calculated in heidenhain-pouch dog after iv administration of the drug at a dose of 0.3 mg/kg; assay type: functional; conditions: Canis lupus familiaris, Stomach
Rattus norvegicus [13] = assay: In vivo inhibition of gastric acid secretion was calculated in stomach-lumen perfused rat after iv administration of drug at a dose of 5 mg/kg; assay type: functional
Canis familiaris [14] = assay: In vivo inhibition of gastric acid secretion was calculated in heidenhain-pouch dog after iv administration of the drug at a dose of 0.5 mg/kg; assay type: functional; conditions: Canis lupus familiaris, Stomach
Canis familiaris [15] = assay: Antisecretory activity calculated in heidenhain-pouch dog after id administration of the drug; assay type: functional; conditions: Canis lupus familiaris
Canis familiaris [16] = assay: Antisecretory activity calculated in heidenhain-pouch dog after iv administration of the drug, values in parenthesis indicates 95% confidence limits; assay type: functional; conditions: Canis lupus familiaris

Description for physchem: pKa value of the compound

IC50 (Oryctolagus cuniculus [7]; Stomach) [µM]	pKa (physchem)	SMILES	inhibition in vivo at 0.3 mg/kg (animal or person) [%]	inhibition in vivo at 1 mg/kg (Canis familiaris [3]) [%]	ED50 (Canis familiaris [5]) [mg/kg]	inhibition in vivo at 0.5 mg/kg (Rattus norvegicus [8]) [%]	further results
1		COc1c(OCC(F)(F)C(F)(F)F)ccnc1C[S+]([O-])c1nc2cscc2[nH]1 (stereo not drawn)	74	95	0.13	57	ED50 (Canis familiaris [1]): 0.16 mg/kg; half-life [2]: 7.8 h; half-life [4]: 0.183 h; half-life [6]: 23 h
9	3.26	Cc1ccc(C[S+]([O-])c2nc3cscc3[nH]2)nc1 (stereo not drawn)	72		0.11	78	
230		COc1c(Cl)cnc(C[S+]([O-])c2nc3cscc3[nH]2)c1C (stereo not drawn)		24		43	inhibition [9]: -5%
		COc1cccnc1C[S+]([O-])c1nc2cscc2[nH]1 (stereo not drawn)				59	IC50 (Oryctolagus cuniculus [10]): 290 µM
		[O-][S+](Cc1cc(OCc2ccc(F)cc2)ccn1)c1nc2cscc2[nH]1 (stereo not drawn)				85	IC50 [11]: 0.5 µM; inhibition in vivo at 0.3 mg/kg (Canis familiaris [12]): 80%; IC50 (Oryctolagus cuniculus [7]): 0.5 µM
1	3.55	COc1ccnc(C[S+]([O-])c2nc3cscc3[nH]2)c1Cl (stereo not drawn)	82	36	0.1	71	
		Cc1ccnc(C[S+]([O-])c2nc3cscc3[nH]2)c1 (stereo not drawn)					inhibition in vivo at 5 mg/kg (Rattus norvegicus [13]): -67%; inhibition in vivo at 0.5 mg/kg (Canis familiaris [14]): 72%
81		COc1c(Br)cnc(C[S+]([O-])c2nc3cscc3[nH]2)c1C (stereo not drawn)				37	inhibition [9]: -5%
21		Cc1c(OCC(F)(F)F)ccnc1C[S+]([O-])c1nc2cscc2[nH]1 (stereo not drawn)				56	inhibition in vivo at 0.3 mg/kg (Canis familiaris [12]): 57%
		COc1ccc2[nH]c([S+]([O-])Cc3ncc(C)c(OC)c3C)nc2c1 (stereo not drawn) [OMEPRAZOLE]			0.1		half-life [2]: 2.26 h; half-life [4]: 12 h; half-life [6]: 17 h; ED50 (Canis familiaris [15]): 0.25 mg/kg
		COc1c(OCC(F)(F)C(F)F)ccnc1C[S+]([O-])c1nc2cscc2[nH]1 (stereo not drawn)	58	47		79	IC50 [11]: 3 µM; IC50 (Oryctolagus cuniculus [7]): 0.6 µM
2.5	3.52	COc1c(OCC(F)(F)F)ccnc1C[S+]([O-])c1nc2cscc2[nH]1 (stereo not drawn)	85		0.08	64	IC50 [11]: 4 µM
1.3	3.73	[O-][S+](Cc1cc(OCC(F)(F)C(F)(F)C(F)(F)F)ccn1)c1nc2cscc2[nH]1 (stereo not drawn) [SAVIPRAZOLE]	76	93		72	half-life [2]: 1.4 h; half-life [4]: 0.05 h; ED50 (Canis familiaris [16]): 0.22 mg/kg; half-life [6]: 8 h
